Test results: patent US10179789B2, “Methylenedioxybenzo [I] phenanthridine derivatives used to treat cancer” (Rutgers, The State University of New Jersey, priority 2009, dated 2019)

How the values were obtained:
KB3-1 cell line = test: Cytotoxicity on KB3-1 (parent cell line); format: cell-based
Experimental: (§1) The cytotoxicity was determined using the MTT-microtiter plate tetrazolinium cytotoxicity assay (MTA). The human lymphoblast RPMI 8402 and its camptothecin-resistant variant cell line, CPT-K5 was provided by Dr. Toshiwo Andoh (Aichi Cancer Center Research Institute, Nagoya, Japan). (36) The P388 mouse leukemia cell line and its CPT-resistant TOP1-deficient variant P388/CPT45 (37) were obtained from Michael R. Mattern and Randal K. Johnson (GlaxoSmithKline, King of Prussia, Pa.). The KB3-1 cell line and its multidrug-resistant variant KBV-1 (38) were obtained from K. V. Chin (The Cancer Institute of New Jersey, New Brunswick, N.J.). The KBH5.0 cell line as noted previously (21) was derived from KB3-1 by stepwise selection against Hoechst 33342. The cytotoxicity assay was performed using 96-well microtiter plates. Cells were grown in suspension at 37° C. in 5% CO2 and maintained by regular passage in RPMI medium supplemented with 10% heat inactivated fetal bovine serum, L-glutamine (2 mM), penicillin (100 U/mL), and Streptomycin (0.1 mg/mL). For determination of IC50, cells were exposed continuously for FOUR days to varying concentrations of drug, and MTT assays were performed at the end of the fourth day. […] All assays were performed at least twice in six replicate wells.
(§2) The cytotoxicity of the representative compounds of the invention were also tested on cell line KB3-1 (parent cell line), KBV-1 (a variant that overexpresses efflux transporter MDR1) and KBH5.0 (a variant that overexpresses BCRP). Differences in the relative cytotoxicity between the parent and variant cell lines may be indicative of a compound that is a substrate for an efflux transporter. […] Accordingly, compounds of the invention of formula I may be useful to treat tumors that are resistant to other anticancer agents, especially anticancer agents that are susceptible to efflux by BCRP (e.g. anthracyclines, mitoxantrone, topotecan, irinotecan, bisanthrone, doxorubicin, daunorubicin, and epirubin.

[1] = test system: RPMI 8402 human lymphoblast cells; test: Test B. MTT cytotoxicity assay, RPMI8402; format: cell-based
Experimental: (§3) Test B. Cytotoxic Assays (Cancer Cell Lines and Efflux Transporter Cell Lines)
as §1

[2] = test system: KBV-1 (variant that overexpresses efflux transporter MDR1); test: Cytotoxicity on KBV-1 (overexpresses MDR1); format: cell-based
Experimental: as §1, §2

[3] = test system: P388 mouse leukemia cell line; test: Test B. MTT cytotoxicity assay, P388; format: cell-based
Experimental: as §3, §1

[4] = test system: CPT-K5 (camptothecin-resistant variant of RPMI 8402); test: Test B. MTT cytotoxicity assay, CPT-K5; format: cell-based, human
Experimental: as §3, §1

[5] = test system: P388/CPT45 (CPT-resistant TOP1-deficient variant of P388); test: Test B. MTT cytotoxicity assay, P388/CPT45; format: cell-based, mouse
Experimental: as §3, §1

human topoisomerase I = target: T1, human topoisomerase I (Homo sapiens, UniProt P11387); test: Test A. Topoisomerase I-mediated DNA cleavage assay; format: biochemical; conditions: Relative Effective Concentration; relative to camptothecin arbitrarily assumed as 0.2; same 10% cleavage on plasmid DNA
T1 construct: unnamed fusion partner (recombinant fusion protein, T7 expression system); made in house; host or cells: Escherichia coli
T1 sequence (P11387 1-765): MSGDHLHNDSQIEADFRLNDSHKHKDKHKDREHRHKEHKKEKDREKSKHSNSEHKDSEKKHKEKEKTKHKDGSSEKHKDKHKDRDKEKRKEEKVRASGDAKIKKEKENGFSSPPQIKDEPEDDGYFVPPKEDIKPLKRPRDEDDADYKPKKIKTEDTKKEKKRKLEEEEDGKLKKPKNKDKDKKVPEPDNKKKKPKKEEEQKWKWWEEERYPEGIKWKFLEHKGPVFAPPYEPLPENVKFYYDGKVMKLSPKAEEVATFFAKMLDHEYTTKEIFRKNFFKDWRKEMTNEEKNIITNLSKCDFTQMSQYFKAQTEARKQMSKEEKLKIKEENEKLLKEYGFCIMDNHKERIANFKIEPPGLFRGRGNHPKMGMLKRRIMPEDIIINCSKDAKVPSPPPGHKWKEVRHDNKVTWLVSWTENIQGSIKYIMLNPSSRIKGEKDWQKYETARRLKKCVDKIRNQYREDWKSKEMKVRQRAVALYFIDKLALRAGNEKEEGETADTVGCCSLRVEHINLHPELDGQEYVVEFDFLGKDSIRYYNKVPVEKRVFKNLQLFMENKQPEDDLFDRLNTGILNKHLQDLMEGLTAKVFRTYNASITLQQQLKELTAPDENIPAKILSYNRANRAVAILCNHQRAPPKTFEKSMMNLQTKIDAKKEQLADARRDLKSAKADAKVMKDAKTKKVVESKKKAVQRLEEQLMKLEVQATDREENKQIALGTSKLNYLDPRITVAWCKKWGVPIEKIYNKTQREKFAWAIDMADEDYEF
From the text: Test A. Topoisomerase I—Mediated DNA Cleavage Assay Human topoisomerase I was expressed in Escherichia coli and isolated as a recombinant fusion protein using a T7 expression system as described previously (31). Plasmid YepG was also purified by the alkali lysis method followed by phenol deproteination and CsCl/ethidium isopycnic centrifugation method as described (32). The 3′ end labeling of the plasmid was accomplished by digestion with a restriction enzyme followed by end filling with Klenow polymerase as previously described (33). The cleavage assays were performed as previously reported (34,35). The drug and the DNA in presence of topoisomerase I was incubated for 30 min at room temperature. The reactions were terminated by the addition of 5 μL of 5% SDS and 1 mg/mL […] with an additional 1 h of incubation at 37° C. […] After development of the gels, typically 24-h exposure was used to obtain autoradiograms outlining the extent of DNA fragmentation. Topoisomerase I-mediated DNA cleavage values are reported as Relative Effective Concentration (REC). […] Results for the assay for representative compounds of the invention of formula I along with comparison compounds are shown in Table 1.

[6] = test system: KBH5.0 (variant that overexpresses BCRP); test: Cytotoxicity on KBH5.0 (overexpresses BCRP); format: cell-based
Experimental: as §1, §2

COc1cc2c(C(=O)NCC(C)(C)N(Cc3ccccc3)Cc3ccccc3)cc3c4cc5c(cc4ncc3c2cc1OC)OCO5 [Compound 32, N-(2-(Dibenzylamino)-2-methylpropyl)-2,3-dimethoxy-8,9-methylene-dioxybenzo[i]phenanthridine-12-carboxamide]
IC50 (KB3-1 cell line): 20 nM | IC50 [1]: 60 nM | IC50 [2]: 2900 nM | IC50 [3]: 30 nM | IC50 [4]: 5000 nM | IC50 [5]: 1300 nM | TOP1 Mediated DNA Cleavage (REC Value) (human topoisomerase I): 1.5 | IC50 [6]: 600 nM
